Data from article PMC6325200, “Effects of Microplate Type and Broth Additives on Microdilution MIC Susceptibility Assays” (Antimicrobial Agents and Chemotherapy, 2018).
Values after ≈ are worked out from the molar mass of the structure shown. Values joined by “and” are separate entries in the source; they are usually repeats but may differ in a detail not shown here. Equal values may be shown once. Read-outs that look alike come from different tables or passages of the source. Where a SMILES comes first, the peptide text is derived from it. Bridges are numbered along the chain shown (N, C = ends). [ ]: non-standard residue; d: D form. The star is where a group is joined. X1 = CC[C@H](C)CCCCC(=O)*; Dab = NCC[C@H](N)C(=O)O

Legend:
over 200 strains = details: 0.002% polysorbate added; cited from earlier work
Description: (§1) Members of the lipopeptide polymyxin class of antibiotics (polymyxin B [compound 7a] and polymyxin E [or colistin, compound 7b]) are important last-line therapeutic agents against many multidrug-resistant Gram-negative bacteria ([27][–][31]). They consist of an N-terminal fatty acid side chain that is attached to a polycationic deca-peptide backbone (Fig. 1) with physicochemical properties similar to those of the lipoglycopeptides. These structural features confer amphipathicity, which is a key feature of many other cationic antimicrobial peptides (CAMPs) ([32][–][34]). As mentioned earlier, p ...

[1] = 8 µg/ml, 24 h, cited from earlier work; for % of expected concentration detected: MHB
Description: as §1

E. coli = details: literature value; cited from earlier work
E. coli ATCC 25922 = experiment: microbe, parasite or virus in culture
Protocol: (§2) A positive control of a row of just the bacteria and a negative control of only the medium were included for every plate tested.
(§3) The compounds along with standard antibiotics were serially diluted 2-fold across the 96-well plates. […] A sample of each culture was then diluted 40-fold in fresh MH broth (in presence and absence of Tween) and incubated at 37°C for 2 to 3 h.
For experiments in the presence of surfactant, 2% beractant (25 mg/ml) was added to the mid-log-phase cultures and mixed gently and added to all the 96-well plates. For experiments in the presence of serum, a mixture of 50% of human serum along with 50% MHB was prepared and used throughout the experiment.

A. baumannii ATCC 19606 = experiment: microbe, parasite or virus in culture; details: n = 2
Protocol: as §2, §3

K. pneumoniae ATCC 13883 = experiment: microbe, parasite or virus in culture; details: n = 2
Protocol: as §2, §3

P. aeruginosa ATCC 10145 = experiment: microbe, parasite or virus in culture; details: n = 2
Protocol: as §2, §3

[2] = literature values, reference given; cited from earlier work
Description: Other assay additives can affect MIC values. […] Plasma protein binding has been implicated as a major factor limiting the active free concentration of many clinically important antibiotics ([37][–][42]).

SMILES: CC[C@H](C)CCCCC(=O)N[C@@H](CCN)C(=O)N[C@H](C(=O)N[C@@H](CCN)C(=O)N[C@H]1CCNC(=O)[C@H]([C@@H](C)O)NC(=O)[C@H](CCN)NC(=O)[C@H](CCN)NC(=O)[C@H](CC(C)C)NC(=O)[C@@H](CC(C)C)NC(=O)[C@H](CCN)NC1=O)[C@@H](C)O [Colistin, colistin] (X1-[Dab]T[Dab][Dab][Dab][dL]L[Dab][Dab]T; lactam 4-C (inferred); N-terminus assumed)
- more potent MICs with surfactant present (over 200 strains): 4- to 8 fold
- % of concentration remaining ([1]; Greiner untreated PS microwell plates): 2%
- % of expected concentration detected ([1]; PP tubes): 90%
- % of expected concentration detected ([1]; PS tubes): 84%
- % of expected concentration detected ([1]; glass tubes): 80%
- % of concentration remaining ([1]; Nunc untreated PS microwell plates): 70%
- MIC (literature) (E. coli): 0.5–2 ([70]) µg/ml
- MIC (E. coli ATCC 25922; Corning NBS, MH + 2% LHB, 2% LS, n = 2): 0.03 to 0.06 µg/mL
- MIC (E. coli ATCC 25922; Corning NBS, MH + 2% LHB, 50% HS, n = 2): ≤0.03 µg/mL
- MIC (E. coli ATCC 25922; Corning NBS, MH + 2% LHB, no additive, n = 2): ≤0.03 µg/mL
- MIC (E. coli ATCC 25922; Corning NBS, MH + T80, 2% LS, n = 2): 0.03 to 0.06 µg/mL
- MIC (E. coli ATCC 25922; Corning NBS, MH + T80, 50% HS, n = 2): ≤0.03 µg/mL
- MIC (E. coli ATCC 25922; Corning NBS, MH, 2% LS, n = 2): ≤0.03 µg/mL
- MIC (E. coli ATCC 25922; Corning NBS, MH, 50% HS, n = 2): ≤0.03 µg/mL
- MIC (E. coli ATCC 25922; Corning PS plate, MHB −T80, no additive, n = 2): 0.06 µg/mL (≈ 0.0513 µM)
- MIC (E. coli ATCC 25922; Corning PS, MH + 2% LHB, 2% LS, n = 2): 0.06 to 0.125 µg/mL
- MIC (E. coli ATCC 25922; Corning PS, MH + 2% LHB, 50% HS, n = 2): ≤0.03 µg/mL
- MIC (E. coli ATCC 25922; Corning PS, MH + 2% LHB, no additive, n = 2): 1 µg/mL
- MIC (E. coli ATCC 25922; Corning PS, MH + T80, 2% LS, n = 2): 0.03 to 0.06 µg/mL
- MIC (E. coli ATCC 25922; Corning PS, MH + T80, 50% HS, n = 2): ≤0.03 µg/mL
- MIC (E. coli ATCC 25922; Corning PS, MH, 2% LS, n = 2): 0.06 to 0.25 µg/mL
- MIC (E. coli ATCC 25922; Corning PS, MH, 50% HS, n = 2): ≤0.03 µg/mL
- MIC (E. coli ATCC 25922; Corning TC plate, MHB +0.002% T80, no further additive, n = 2): 1 µg/mL (≈ 0.855 µM)
- MIC (E. coli ATCC 25922; Corning TC plate, MHB −T80, no additive, n = 2): 0.5 to 1 µg/mL
- MIC (E. coli ATCC 25922; Corning TC, MH + 2% LHB, 2% LS, n = 2): 2 to 4 µg/mL
- MIC (E. coli ATCC 25922; Corning TC, MH + 2% LHB, 50% HS, n = 2): 0.25 to 0.5 µg/mL
- MIC (E. coli ATCC 25922; Corning TC, MH + 2% LHB, no additive, n = 2): ≤0.03 µg/mL
- MIC (E. coli ATCC 25922; Corning TC, MH + T80, 2% LS, n = 2): 1 to 2 µg/mL
- MIC (E. coli ATCC 25922; Corning TC, MH + T80, 50% HS, n = 2): 0.25 to 0.5 µg/mL
- MIC (E. coli ATCC 25922; Corning TC, MH, 2% LS, n = 2): 0.5 to 1 µg/mL
- MIC (E. coli ATCC 25922; Corning TC, MH, 50% HS, n = 2): 0.125 to 0.5 µg/mL
- MIC (E. coli ATCC 25922; NBS plates): ≤ 0.03 µg/mL
- MIC (E. coli ATCC 25922; Nunc PS plate, MHB +0.002% T80, n = 2): ≤0.03 µg/mL
- MIC (E. coli ATCC 25922; Nunc PS plate, MHB −T80, n = 2): 0.125 to 1 µg/mL
- MIC (E. coli ATCC 25922; Nunc U TC plate, MHB +0.002% T80, n = 2): 2 µg/mL (≈ 1.71 µM)
- MIC (E. coli ATCC 25922; Nunc U TC plate, MHB −T80, n = 2): 0.5 to 1 µg/mL
- MIC (E. coli ATCC 25922; Nunc flat TC plate, MHB +0.002% T80, n = 2): 1 to 2 µg/mL
- MIC (E. coli ATCC 25922; Nunc flat TC plate, MHB −T80, n = 2): 1 to 2 µg/mL
- MIC (E. coli ATCC 25922; PS plates): ≤0.03 to 1 µg/mL
- MIC (E. coli ATCC 25922; PS plates with T80): ≤0.03 to 0.25 µg/mL
- MIC (E. coli ATCC 25922; TC plates): 0.5 to 4 µg/mL
- MIC (E. coli ATCC 25922; Trek PS plate, MHB +0.002% T80, no further additive, n = 2): ≤0.03 µg/mL
- MIC (E. coli ATCC 25922; Trek PS plate, MHB −T80, no additive, n = 2): ≤0.03 µg/mL
- MIC (E. coli ATCC 25922; Trek PS, MH + 2% LHB, 2% LS, n = 2): ≤0.03 µg/mL
- MIC (E. coli ATCC 25922; Trek PS, MH + 2% LHB, 50% HS, n = 2): 0.03 to 0.06 µg/mL
- MIC (E. coli ATCC 25922; Trek PS, MH + 2% LHB, no additive, n = 2): 0.03 to 0.06 µg/mL
- MIC (E. coli ATCC 25922; Trek PS, MH + T80, 2% LS, n = 2): ≤0.03 µg/mL
- MIC (E. coli ATCC 25922; Trek PS, MH + T80, 50% HS, n = 2): ≤0.03 µg/mL
- MIC (E. coli ATCC 25922; Trek PS, MH, 2% LS, n = 2): ≤0.03 µg/mL
- MIC (E. coli ATCC 25922; Trek PS, MH, 50% HS, n = 2): ≤0.03 µg/mL
- MIC (A. baumannii ATCC 19606; Corning NBS, MHB +T80): ≤ 0.03 µg/mL
- MIC (A. baumannii ATCC 19606; Corning NBS, MHB -T80): ≤ 0.03 µg/mL
- MIC (A. baumannii ATCC 19606; Corning PS, MHB +T80): 0.06 µg/mL (≈ 0.0513 µM)
- MIC (A. baumannii ATCC 19606; Corning PS, MHB -T80): 0.06 to 0.125 µg/mL
- MIC (A. baumannii ATCC 19606; Corning TC, MHB +T80): 1 to 2 µg/mL
- MIC (A. baumannii ATCC 19606; Corning TC, MHB -T80): 0.5 to 1 µg/mL
- MIC (K. pneumoniae ATCC 13883; Corning NBS, MHB +T80): ≤ 0.03 µg/mL
- MIC (K. pneumoniae ATCC 13883; Corning NBS, MHB -T80): ≤ 0.03 µg/mL
- MIC (K. pneumoniae ATCC 13883; Corning PS, MHB +T80): ≤ 0.03 µg/mL
- MIC (K. pneumoniae ATCC 13883; Corning PS, MHB -T80): 0.125 to 0.25 µg/mL
- MIC (K. pneumoniae ATCC 13883; Corning TC, MHB +T80): 0.25 to 0.5 µg/mL
- MIC (K. pneumoniae ATCC 13883; Corning TC, MHB -T80): 2 µg/mL (≈ 1.71 µM)
- MIC (P. aeruginosa ATCC 10145; Corning NBS, MHB +T80): 0.125 µg/mL (≈ 0.107 µM)
- MIC (P. aeruginosa ATCC 10145; Corning NBS, MHB -T80): 0.06 µg/mL (≈ 0.0513 µM)
- MIC (P. aeruginosa ATCC 10145; Corning PS, MHB +T80): 0.25 to 0.5 µg/mL
- MIC (P. aeruginosa ATCC 10145; Corning PS, MHB -T80): 0.25 to 0.5 µg/mL
- MIC (P. aeruginosa ATCC 10145; Corning TC, MHB +T80): 1 to 2 µg/mL
- MIC (P. aeruginosa ATCC 10145; Corning TC, MHB -T80): 0.5 to 2 µg/mL
- protein binding [2]: 50 to 60% and 60%
